# From US8193160B2 (priority 2006, dated 2012)
# Columns and labels:
# [1] = tested on: Magnaporthe vegetative mycelia, wild type Guy11; assay: microbe, parasite or virus in culture; format: cell-based, Magnaporthe grisea; settings: for MIC: Pyricularia oryzae, read-out: Minimum Inhibitory Concentration (MIC), Guy11
# [2] = tested on: wild type appressoria; format: cell-based, Magnaporthe grisea
# [3] = tested on: wild type conidia; format: cell-based, Magnaporthe grisea
# [4] = tested on: abc3Δ conidia; format: cell-based, Magnaporthe grisea
# [5] = tested on: wild type Guy11 strain
# [6] = tested on: ABC3 promoter; format: cell-based, Magnaporthe grisea
compound,measurement,setting,value
CCC(=C/[C@H](C)C/C=C/C(C)=C/[C@@H](C)C(=O)[C@@H](C)[C@H](O)[C@@H](C)C/C(C)=C/C(=O)O)/C=C/[C@@H]1OC(=O)C=C[C@@H]1C [Leptomycin B],"Minimum Inhibitory Concentration (MIC), Guy11",[1],0.0075 µg/mL
CC1=CC(=O)c2ccccc2C1=O [Menadione],effect on host penetration compared to treatment with peroxide,[2],slightly reduced effect
CCCCNC(=O)n1c(NC(=O)OC)nc2ccccc21 [Benomyl],MIC,[1],2 µg/mL
COc1ccc(CCN(C)CCCC(C#N)(c2ccc(OC)c(OC)c2)C(C)C)cc1OC (stereo not drawn) [Verapamil],decrease in penetration peg formation,[2],≤ 74%
same,effect on germ tube emergence or growth,[2],without affecting
CC(C)[C@@H]1NC(=O)[C@H](C)OC(=O)[C@@H](C(C)C)NC(=O)[C@@H](C(C)C)OC(=O)[C@H](C(C)C)NC(=O)[C@H](C)OC(=O)[C@@H](C(C)C)NC(=O)[C@@H](C(C)C)OC(=O)[C@H](C(C)C)NC(=O)[C@H](C)OC(=O)[C@@H](C(C)C)NC(=O)[C@@H](C(C)C)OC1=O [Valinomycin],frequency of appressoria formation,[3],61±2%
same,germ tube growth,[3],could withstand elevated concentration
same,MIC,[1],20 µg/mL
same,effect on conidia (germ tube emergence),[4],complete blockage of conidial germ tube emergence
same,germ tube growth,[4],inhibited
Actinomycin D,"Minimum Inhibitory Concentration (MIC), Guy11",[1],15 µg/mL
"[Cl-].[K+] [KCl, potassium chloride]",reversal of defects associated with Valinomycin action,[3],failed to reverse
C[C@H]1CCC/C=C/[C@@H]2C[C@H](O)C[C@H]2[C@H](O)/C=C/C(=O)O1 [Brefeldin A],"Minimum Inhibitory Concentration (MIC), Guy11",[1],40 µg/mL
OO [hydrogen peroxide],appressoria able to breach the host surface,[2],36±2.8%
same,peroxide level that blocked germ tube emergence,[2],exceeding 5 mM
same,growth under oxidative stress,[5],unaffected
same,ABC3 promoter driven destabilized-GFP fluorescence versus untreated control,[6],four fold higher
Gramicidin D,"Minimum Inhibitory Concentration (MIC), Guy11",[1],180 µg/mL
CCC(C)n1ncn(-c2ccc(N3CCN(c4ccc(OCC5COC(Cn6cncn6)(c6ccc(Cl)cc6Cl)O5)cc4)CC3)cc2)c1=O (stereo not drawn) [Itraconazole],MIC,[1],2000 µg/mL
OC(Cn1cncn1)(Cn1cncn1)c1ccc(F)cc1F [Fluconazole],MIC,[1],2500 µg/mL
C[n+]1ccc(-c2cc[n+](C)cc2)cc1 [paraquat],effect on host penetration compared to treatment with peroxide,[2],slightly reduced effect
